Read-outs that look alike come from different tables or passages of the source.
Legend:
serum TxB2 = settings: 75 mg IR ASA; Würtz et al.; cited from earlier work
[1] = Single dose ASA pharmacokinetics, IR ASA vs. ER ASA; assay type: in vivo, human; settings: for AUC(0-t) / Cmax / Tmax: human, serum, oral, ASA
Method: (§1) Healthy adults were randomized to receive single doses of extended release ASA (“ER ASA”) at a dosage of 20 mg, 40 mg, 81 mg, 162.5 mg ER ASA (Durlaza®; New Haven Pharmaceuticals, Inc., North Haven, Conn.), or 325 mg, or immediate release ASA (“IR ASA”; aspirin powder USP; Letco Medical, Decatur, Ala.) at a dosage of 5 mg, 10 mg, 20 mg, 40 mg or 81 mg. […] For pharmacodynamic assessments, serum 11-dehydro-thromboxane (“TxB2”, a stable metabolite of thromboxane A2) levels were assessed using a validated enzyme immunoassay kit in serial blood samples collected 1 hour before dosing and at 0.5, 1, 2, 4, 8, 16, and 24 hours after drug administration.

[2] = test system: platelet aggregation / clot strength; assay: Plateletmapping assay (TEG-6S analyzer); assay type: in vivo, human; settings: Visit 2 trough
Method: The […]® assay ([…] is a registered trademark of Haemoscope Corp.) was conducted using a TEG®-6S analyzer (TEG is a registered trademark of Haemoscope Corp.) and results included parameters: […] For summary purposes the change in each parameter over 24 hours is calculated by subtracting the result at 24 hours from the result at 1 hour (i.e., absolute difference). […] For this study the trough level data are from the following timepoints: (1) for 81 mg-the data at Visit 2; […]

platelet function = assay: PlateletWorks platelet function at trough level; assay type: in vivo, human; settings: Visit 2 trough
Method: The platelet function and aggregation measures at trough level were compared between the 81 mg immediate release ASA, 162.5 mg ER ASA (Durlaza®) and 325 mg ER ASA groups. For this study the trough level data are from the following timepoints: (1) for 81 mg—the data at Visit 2; (2) for 162.5 mg ER ASA (Durlaza®)—the data at Visit 3 pre-dose; and (3) for 325 mg ER ASA—the data at Visit 6 pre-dose.
This is unknown for patients with Diabetes and CVD or multiple risk factors.

[3] = test system: serum 11-dehydro-thromboxane (TxB2) production; assay: Single dose inhibition of serum TxB2 production (enzyme immunoassay); assay type: in vivo, human; settings: highest doses: ER ASA 81 mg, 162.5 mg (Durlaza), 325 mg; IR ASA 40 mg and 81 mg
Method: as §1

platelet aggregation = assay: Multiplate platelet aggregation; assay type: in vivo, human; settings: Visit 2 trough
Method: The main study consisted of a run-in phase where subjects were administered 81 mg, everyday (“QD”), of immediate release acetylsalicylic acid (“IR ASA”) for 7-28 days. […] During Visits 2 and 5 subjects were subjected to the following tests: (1) platelet aggregation measurements (a) AA induced, (b) collagen induced, and (c) Multiplate®; […] During Visits 3 and 6 subjects were subjected to the following tests: (1) platelet aggregation measurements (a) AA induced, (b) collagen induced, and (c) Multiplate®; […] For this study the trough level data are from the following timepoints: (1) for 81 mg—the data at Visit 2; […]

[4] = test system: 2, 3-dinor-6-keto-PGF1α (prostacyclin); assay: Urinary 2,3-dinor-6-keto-PGF1α (prostacyclin) excretion by GC/MS, basal and bradykinin-stimulated (Example 3); assay type: in vivo, human
Method: Each subject was prohibited from taking any aspirin for two weeks prior to being administered the randomly chosen drug daily for 1 week followed by a urine collection 24 hours after dosing. This protocol was repeated two additional times. […] Statistical analysis was done using Wilcoxon rank sum test for continuous variables and the Pearson test for categorical variables.

[5] = single dose 5 mg, healthy adults
[6] = single dose 10 mg, healthy adults
[7] = single dose 20 mg, healthy adults
[8] = single dose 40 mg, healthy adults
[9] = single dose 81 mg, healthy adults
[10] = 81 mg IR, subjects compared with Visit 6 (sub-study)

## CC(=O)Oc1ccccc1C(=O)O [IR ASA, acetylsalicylic acid]
Serum TxB2
  serum TxB2 levels 24 hours after administration: significant increase
[1]; all doses, single dose, healthy adults
  time required to reach the maximum concentration of ASA: 1 to 2 h
[1]; 5 mg, single dose 5 mg, healthy adults, read-out: AUClast
  AUC(0-t): 26.8 ng·h/mL
[1]; 10 mg, single dose 10 mg, healthy adults, read-out: AUC0-8
  AUC(0-t): 136 ng·h/mL
[1]; 10 mg, single dose 10 mg, healthy adults, read-out: AUClast
  AUC(0-t): 74.9 ng·h/mL
[1]; 20 mg, single dose 20 mg, healthy adults, read-out: AUC0-8
  AUC(0-t): 366 ng·h/mL
[1]; 20 mg, single dose 20 mg, healthy adults, read-out: AUClast
  AUC(0-t): 148 ng·h/mL
[1]; 40 mg, single dose 40 mg, healthy adults, read-out: AUClast
  AUC(0-t): 384 ng·h/mL
[1]; 81 mg, single dose 81 mg, healthy adults, read-out: AUClast
  AUC(0-t): 865 ng·h/mL
[1]; [5]
  Cmax: 25.1 ng/mL
  Tmax: 1.2 h
[1]; [6]
  Cmax: 63.9 ng/mL
  Tmax: 1.5 h
[1]; [7]
  Cmax: 123 ng/mL
  Tmax: 1.6 h
[1]; [8]
  Cmax: 228 ng/mL
  Tmax: 1.4 h
[1]; [9]
  Cmax: 504 ng/mL
  Tmax: 1.4 h
[1]; single dose, 8 hours = sampling interval evaluated
  time period over which serum concentrations of ASA were maintained: 6 h
[2]; 81 mg IR QD, main study
  TEG PlateletMapping AA Aggregation: 48 ± 29
  TEG PlateletMapping ADP Aggregation: 74 ± 25
  TEG PlateletMapping MA (clot strength, mm): 65 ± 5 mm
  TEG PlateletMapping MA-AA (mm): 39 ± 15 mm
  TEG PlateletMapping MA-ADP (mm): 50 ± 18 mm
  TEG PlateletMapping MA-fibrin (mm): 17 ± 11 mm
  TEG PlateletMapping R (Clotting time, min): 6.8 ± 1.5 min
[2]; [10]
  TEG PlateletMapping AA Aggregation: 75 ± 17
  TEG PlateletMapping ADP Aggregation: 73 ± 21
  TEG PlateletMapping MA (clot strength, mm): 64 ± 3 mm
  TEG PlateletMapping MA-AA (mm): 54 ± 9 mm
  TEG PlateletMapping MA-ADP (mm): 52 ± 11 mm
  TEG PlateletMapping MA-fibrin (mm): 24 ± 12 mm
  TEG PlateletMapping R (Clotting time, min): 7.1 ± 0.7 min
Platelet function; 81 mg IR QD, main study
  PlateletWorks (% Agg) AA: 44 ± 19 % Agg
  PlateletWorks (% Agg) ADP: 83 ± 15 % Agg
  PlateletWorks (% Agg) Collagen: 47 ± 17 % Agg
Platelet function; [10]
  PlateletWorks (% Agg) AA: 44 ± 16 % Agg
  PlateletWorks (% Agg) ADP: 84 ± 10 % Agg
  PlateletWorks (% Agg) Collagen: 44 ± 12 % Agg
[3]
  single dose inhibition of TxB2 production: maintained during a 24-hour period
Platelet aggregation; 81 mg IR QD, main study
  MultiPlate (AU) AA: 17 ± 14 AU
  MultiPlate (AU) ADP: 70 ± 24 AU
  MultiPlate (AU) Collagen: 36 ± 17 AU
Platelet aggregation; [10]
  MultiPlate (AU) AA: 24 ± 13 AU
  MultiPlate (AU) ADP: 77 ± 15 AU
  MultiPlate (AU) Collagen: 47 ± 18 AU
[4]; 81 mg
  Bradykinin-stimulated prostacyclin levels over placebo: significantly reduced
[4]; 81 mg daily for 1 week
  Basal prostacyclin levels over placebo: significantly reduced
[4]; 162.5 mg
  Bradykinin-stimulated prostacyclin levels over placebo: significantly reduced
[4]; 162.5 mg daily for 1 week
  Basal prostacyclin levels over placebo: significantly reduced
